Experimental findings from patent US20240358727A1, “MICROSCALE THERMOPHORESIS TO EVALUATE CHANNEL LIPID INTERACTIONS AND METHODS OF TREATING NAV CHANNELS RELATED DISEASES” (Northeastern University, priority 2023, published 2024) are described below.

This experiment deals with T1, Nav1.5 channel currents (INa, ILATE) in M3q iPS-CMs (Homo sapiens, UniProt Q14524).
T1 construct: host or cells: human iCell^2 iPS cardiomyocytes (transfected with M3q DREADD in A5; endogenous AT1 receptor in A7)
As to the kind of experiment: Whole-cell patch-clamp of INa and ILATE in M3q-DREADD iPS-CMs activated with CNO. The note with it: 100 nM CNO. The format is cell-based. The protocol:
Control is CNO application to cells with no M3q. Mean±SD % fluorescence change for 20 cells per group; an example photobleaching montage is inset. […] Leftwards shifts in each parameter are precluded by U73122 or by 200 μM diC8-PIP2 in the pipette but are not sensitive to staurosporine or BAPTA. The cells were perfused with an extracellular solution containing (in mM): 130 NaCl, 5 CsCl, 1.2 MgCl2, 1.5 CaCl2), 8 Glucose, 10 HEPES (pH7.4). […] nitrendipine was added to the recording solution to block Ca^2+ flux through Cav channels. Patch pipettes with a resistance of 2.5-4 MQ are filled with a solution containing (in mM): 60 CsCl, 80 CsF, 2 MgCl2, 10 EGTA, 5 Na2ATP, 5 HEPES (pH 7.4). Currents were low pass (Bessel) filtered at 9 kHz and digitized at 50 kHz and were collected from cells with a series resistance <15 MQ; this was compensated by 70%.
Results. Studies are designed to evaluate if hydrolysis of PIP2 modulates Nav1.5 channel currents in cardiomyocytes. To perform these experiments, we used human iPS cardiomyocytes (iCell^2 iPS-CMs) from Fuji-Film Cellular Dynamics. These iPS-CMs are a valuable model system for human cardiomyocytes that retain many of the key characteristics of the native cells. Here, we transfected the iPS-CMs to express the Gαq-coupled M3q Designer Receptors Exclusively Activated by Designer Drugs (DREADD) receptor. We use a magnetic transfection system from Oz Biosciences that we have previously employed with cardiomyocytes. First, we tested the efficacy of M3q to hydrolyze PIP2 in our model system. To accomplish this, we studied uncoupling of the PIP2 biosensor iRFP-PHPLCδ1 from the plasma membrane in response to chemogenic activation of M3q by 100 nM clozapine N-oxide (CNO, Tocris Biosciences).
These findings are consistent with our prior observations and the work using optogenetically activated PI-phosphatases to deplete PIP2 in HEK293 cells […] Xenopus laevis oocytes. […] Having established a time frame for PIP2 hydrolysis in our system, we used whole-cell patch-clamp to study INa in paired experiments, before and after chemogenic activation of M3q. Applying 100 nM CNO evoked a leftward shift in the current-voltage (I-V) relationship of INa such that peak INa shifted from −25 to −35 mV. At −35 mV, the peak current-density increased from −220±5 pA/pF to −266±4 pA/pF at −35 mV (n=8, P<0.001, paired Student's t-test). […] However, in contrast to our findings with Nav1.4, activating M3q signaling also left-shifted the steady state inactivation curve of Nav1.5 (V½SSI), from −81.4±2 to −89.7±2 mV (n=8, P<0.01, paired t-test; FIGS. 2C, 2D). These studies indicate that Nav1.5 channels are regulated by hydrolysis of PIP2 and that there are distinctions between PIP2 regulation of Nav1.5 and Nav1.4.
Next, we studied the effect of M3q-activation on ILATE by recording currents evoked by a 400 ms depolarizing pulse to −20 mV before and during receptor activation. The magnitude of ILATE represents the mean current 150-200 ms after peak INa and is expressed as a percentage of peak INa. […] The effects of M3q activation on V½ACT, V½SSI, and the development of ILATE were not affected by staurosporine (1 μM, 1-hour preincubation) or BAPTA (10 mM in the recording pipette), making a role for IP3 or DAG unlikely. […] Similar data were obtained for Nav1.5 expressed with Navβ1 and the M3q-DREADD receptor in HEK293T cells. This experiment validates that the findings are not restricted to a particular model system or cellular environment.
Measure modulation in INa and ILATE by endogenous Gαq signaling. Like native cardiomyocytes, human iPS-CMs express AT1 receptors. Here, the effects of Ang II (Tocris) on Nav1.5 channel function in iPS-CMs is tested using four whole-cell patch-clamp recording protocols. […]

Entries after “also recorded” stand apart in the source; their conditions may differ.

T1 sequence (Q14524 whole entry): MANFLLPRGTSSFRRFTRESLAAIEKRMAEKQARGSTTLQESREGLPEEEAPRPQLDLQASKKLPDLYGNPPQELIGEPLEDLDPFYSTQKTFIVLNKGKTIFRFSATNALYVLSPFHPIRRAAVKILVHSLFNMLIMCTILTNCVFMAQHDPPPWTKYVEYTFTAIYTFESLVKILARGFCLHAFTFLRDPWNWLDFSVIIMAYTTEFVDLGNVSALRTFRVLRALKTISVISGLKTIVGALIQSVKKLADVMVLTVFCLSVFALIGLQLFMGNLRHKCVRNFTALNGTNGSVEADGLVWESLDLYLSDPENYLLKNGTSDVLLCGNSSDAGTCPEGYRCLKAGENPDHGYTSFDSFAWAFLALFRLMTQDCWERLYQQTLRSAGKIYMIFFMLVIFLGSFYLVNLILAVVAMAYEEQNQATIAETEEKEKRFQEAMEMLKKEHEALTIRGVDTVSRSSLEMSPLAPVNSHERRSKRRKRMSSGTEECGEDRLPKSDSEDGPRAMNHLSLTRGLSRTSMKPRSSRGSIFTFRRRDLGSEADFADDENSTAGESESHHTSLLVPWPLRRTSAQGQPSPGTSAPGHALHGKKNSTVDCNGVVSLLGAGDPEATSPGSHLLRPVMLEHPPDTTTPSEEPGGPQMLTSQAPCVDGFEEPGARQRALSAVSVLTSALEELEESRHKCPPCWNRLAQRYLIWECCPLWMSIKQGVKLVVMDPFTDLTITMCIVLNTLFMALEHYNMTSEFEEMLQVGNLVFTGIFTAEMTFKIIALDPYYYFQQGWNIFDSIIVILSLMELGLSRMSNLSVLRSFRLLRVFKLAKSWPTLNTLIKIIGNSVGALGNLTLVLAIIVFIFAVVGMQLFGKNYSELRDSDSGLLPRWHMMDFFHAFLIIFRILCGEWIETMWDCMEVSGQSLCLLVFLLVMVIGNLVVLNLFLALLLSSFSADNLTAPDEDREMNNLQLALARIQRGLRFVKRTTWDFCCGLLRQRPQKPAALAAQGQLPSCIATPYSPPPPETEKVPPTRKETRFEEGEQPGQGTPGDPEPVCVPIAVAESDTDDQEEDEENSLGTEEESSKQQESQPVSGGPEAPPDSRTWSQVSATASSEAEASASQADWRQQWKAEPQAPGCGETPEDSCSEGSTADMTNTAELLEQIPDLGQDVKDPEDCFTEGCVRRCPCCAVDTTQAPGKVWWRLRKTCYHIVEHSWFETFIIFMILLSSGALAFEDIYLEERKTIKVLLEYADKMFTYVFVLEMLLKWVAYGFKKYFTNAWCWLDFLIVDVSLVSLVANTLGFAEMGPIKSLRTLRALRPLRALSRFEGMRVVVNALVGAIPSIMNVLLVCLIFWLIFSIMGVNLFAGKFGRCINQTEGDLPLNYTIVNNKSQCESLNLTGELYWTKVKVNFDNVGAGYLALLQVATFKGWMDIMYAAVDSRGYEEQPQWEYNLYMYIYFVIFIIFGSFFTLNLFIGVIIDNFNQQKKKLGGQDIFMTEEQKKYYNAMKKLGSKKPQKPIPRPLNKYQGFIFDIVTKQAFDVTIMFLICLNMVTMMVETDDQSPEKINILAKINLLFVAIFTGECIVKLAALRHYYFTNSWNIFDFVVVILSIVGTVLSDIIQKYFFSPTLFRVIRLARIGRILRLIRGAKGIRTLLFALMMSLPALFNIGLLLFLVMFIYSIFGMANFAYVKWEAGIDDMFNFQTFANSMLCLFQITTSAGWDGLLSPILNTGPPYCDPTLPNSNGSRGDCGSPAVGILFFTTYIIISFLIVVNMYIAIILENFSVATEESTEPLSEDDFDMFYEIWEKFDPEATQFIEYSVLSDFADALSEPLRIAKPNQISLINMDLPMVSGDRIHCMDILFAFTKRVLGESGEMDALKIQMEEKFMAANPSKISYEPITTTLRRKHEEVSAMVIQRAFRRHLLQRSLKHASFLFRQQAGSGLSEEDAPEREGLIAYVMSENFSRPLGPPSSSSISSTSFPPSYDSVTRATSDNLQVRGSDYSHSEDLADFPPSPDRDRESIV

Take `CCCCCCCC(=O)OC[C@H](COP(=O)(O)O[C@@H]1[C@H](O)[C@H](O)[C@@H](OP(=O)(O)O)[C@H](OP(=O)(O)O)[C@H]1O)OC(=O)CCCCCCC` [diC8-PIP2]: where the note is “200 μM diC8-PIP2 in pipette”, the “effect on CNO-evoked increase in ILATE” value was “precluded”; the “effect on CNO-evoked leftwards shifts in V½ACT and V½SSI” value is “precluded”. Also, the “effect on CNO (M3q activation) effects on V½ACT, V½SSI and ILATE” value (staurosporine 1 μM 1-hour preincubation, BAPTA 10 mM in pipette, U73122 5 μM, diC8-PIP2 200 μM in pipette) is recorded as “blocked; also recorded: abolished”.
